Experimental data: PMC7719162, “Positioning of an unprecedented spiro[5.5]undeca ring system into kinase inhibitor space” (Scientific Reports, 2020)
Read-outs that look alike come from different tables or passages of the source.

Legend:
DAPK1 = molecular target: T1, DAPK1 (Homo sapiens, UniProt P53355); details: cited from earlier work
T1 construct: purchased Reaction Biology Corp

Haspin = molecular target: T2, Haspin (Homo sapiens, UniProt Q8TF76); details: cited from earlier work
T2 construct: purchased Reaction Biology Corp
T2 sequence (Q8TF76 1-798): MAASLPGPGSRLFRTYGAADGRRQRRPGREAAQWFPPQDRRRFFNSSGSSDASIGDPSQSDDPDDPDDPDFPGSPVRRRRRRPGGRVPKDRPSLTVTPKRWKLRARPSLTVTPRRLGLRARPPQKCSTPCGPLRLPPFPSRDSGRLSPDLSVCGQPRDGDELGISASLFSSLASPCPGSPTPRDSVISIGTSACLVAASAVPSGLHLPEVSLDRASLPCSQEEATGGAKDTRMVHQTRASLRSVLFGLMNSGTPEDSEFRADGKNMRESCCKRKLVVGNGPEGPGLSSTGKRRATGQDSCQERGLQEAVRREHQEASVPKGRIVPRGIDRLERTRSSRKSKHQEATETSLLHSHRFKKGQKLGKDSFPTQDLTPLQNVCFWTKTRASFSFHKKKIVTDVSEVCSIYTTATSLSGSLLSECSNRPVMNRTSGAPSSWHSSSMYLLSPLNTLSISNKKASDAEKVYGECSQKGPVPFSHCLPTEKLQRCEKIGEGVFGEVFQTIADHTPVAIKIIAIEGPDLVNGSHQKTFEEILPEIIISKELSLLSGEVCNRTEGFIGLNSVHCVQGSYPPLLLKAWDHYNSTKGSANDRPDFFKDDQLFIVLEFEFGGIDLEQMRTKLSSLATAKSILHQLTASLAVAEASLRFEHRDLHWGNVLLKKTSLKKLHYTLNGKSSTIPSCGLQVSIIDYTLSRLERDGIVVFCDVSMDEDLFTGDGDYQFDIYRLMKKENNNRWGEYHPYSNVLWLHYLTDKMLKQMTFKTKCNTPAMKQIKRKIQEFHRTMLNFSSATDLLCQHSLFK

PKN2/PRK2 = molecular target: T3, PKN2/PRK2 (Homo sapiens, UniProt Q16513); details: cited from earlier work
T3 construct: purchased Reaction Biology Corp

ROCK1 = molecular target: T4, ROCK1 (Homo sapiens, UniProt Q13464); details: cited from earlier work
T4 construct: purchased Reaction Biology Corp

TRKB = molecular target: T5, TRKB (Homo sapiens, UniProt Q16620); details: cited from earlier work
T5 construct: purchased Reaction Biology Corp

AMPK(A1/B1/G3) [1] = molecular target: T6, AMPK(A1/B1/G3) (Homo sapiens, UniProt Q13131); test: Kinase panel assay (radiolabelled); type: biochemical; details: 30 μM compound, ATP 10 μM; duplicates Data 1/Data 2
T6 construct: purchased Reaction Biology Corp

AMPK(A1/B1/G3) [2] = molecular target: T7, AMPK(A1/B1/G3) (Homo sapiens, UniProt Q13131+Q9UGI9+Q9Y478); test: Kinase panel assay (radiolabelled); type: biochemical; details: 30 μM compound, ATP 10 μM; duplicates Data 1/Data 2; read-out: % Enzyme Activity (relative to DMSO controls)
T7 construct: purchased Reaction Biology Corp

RIPK5 = molecular target: T8, RIPK5 (Homo sapiens, UniProt Q6XUX3); test: Kinase panel assay (radiolabelled); type: biochemical; details: ATP 10 μM
T8 construct: purchased Reaction Biology Corp
T8 sequence (Q6XUX3 1-929): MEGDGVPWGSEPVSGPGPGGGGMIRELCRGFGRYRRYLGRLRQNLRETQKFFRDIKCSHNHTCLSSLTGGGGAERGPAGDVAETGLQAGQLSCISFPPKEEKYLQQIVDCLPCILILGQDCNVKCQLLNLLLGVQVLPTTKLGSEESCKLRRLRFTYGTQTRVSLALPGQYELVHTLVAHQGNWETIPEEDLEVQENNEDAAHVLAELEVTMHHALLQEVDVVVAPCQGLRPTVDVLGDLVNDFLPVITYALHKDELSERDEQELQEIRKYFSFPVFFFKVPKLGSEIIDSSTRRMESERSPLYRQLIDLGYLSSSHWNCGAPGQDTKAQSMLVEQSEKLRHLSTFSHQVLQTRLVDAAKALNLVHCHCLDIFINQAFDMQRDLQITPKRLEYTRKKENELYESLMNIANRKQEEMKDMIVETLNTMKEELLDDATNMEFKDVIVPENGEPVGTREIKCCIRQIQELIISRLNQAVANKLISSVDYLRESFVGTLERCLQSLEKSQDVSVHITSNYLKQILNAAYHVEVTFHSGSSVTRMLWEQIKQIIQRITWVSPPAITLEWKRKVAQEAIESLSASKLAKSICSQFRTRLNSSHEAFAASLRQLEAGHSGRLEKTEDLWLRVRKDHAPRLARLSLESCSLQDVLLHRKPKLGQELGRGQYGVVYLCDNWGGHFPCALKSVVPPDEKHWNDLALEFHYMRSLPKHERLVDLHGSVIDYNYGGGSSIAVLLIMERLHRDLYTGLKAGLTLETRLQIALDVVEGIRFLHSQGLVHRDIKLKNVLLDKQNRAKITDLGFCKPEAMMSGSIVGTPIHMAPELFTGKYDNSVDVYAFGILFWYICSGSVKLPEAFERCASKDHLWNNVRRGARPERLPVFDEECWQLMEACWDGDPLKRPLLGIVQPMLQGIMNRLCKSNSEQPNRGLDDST

ROCK2 = molecular target: T9, ROCK2 (Homo sapiens, UniProt O75116); test: Kinase panel assay (radiolabelled); type: biochemical; details: ATP 10 μM
T9 construct: purchased Reaction Biology Corp

PI3KC2A = molecular target: T10, PI3KC2A (Homo sapiens, UniProt O00443); test: Kinase panel assay (lipid kinase); type: biochemical; details: 30 μM compound, ATP 10 μM, duplicates Data 1/Data 2
T10 construct: purchased Reaction Biology Corp
Method: (§1) Every inhibitory activity of tested compounds was measured by radiolabelled method of Reaction Biology Corp). The radiolabelled ATP ([γ-^33P] ATP) replaced a substrate with ^33P-phosphorylated substrate so that the activity of a kinase was measured from the radiolabelled phosphorylated substrate. Kinase panel assay was tested at 30 μM testing compounds with an ATP concentration of 10 μM and a substrate concentration of 10 μM. % Residual activity against GSK3β was measured at 10 uM compounds 1 and 2. […] Curve fits of control compounds were performed where the enzyme activities at the highest concentration of compounds were less than 65%. The concentration of DMSO was controlled and raw data, % kinase activity was calculated relative to DMSO controls.

PI3KC3 = molecular target: T11, PI3KC3 (Homo sapiens, UniProt Q8NEB9); test: Kinase panel assay (lipid kinase); type: biochemical; details: 30 μM compound, ATP 10 μM, duplicates Data 1/Data 2
T11 construct: purchased Reaction Biology Corp
Method: as §1

PI4K2A = molecular target: T12, PI4K2A (Homo sapiens, UniProt Q9BTU6); test: Kinase panel assay (lipid kinase); type: biochemical; details: 30 μM compound, ATP 10 μM, duplicates Data 1/Data 2
T12 construct: purchased Reaction Biology Corp
Method: as §1

PIP5K1A = molecular target: T13, PIP5K1A (Homo sapiens, UniProt Q99755); test: Kinase panel assay (lipid kinase); type: biochemical; details: 30 μM compound, ATP 10 μM, duplicates Data 1/Data 2
T13 construct: purchased Reaction Biology Corp
Method: as §1

PIP5K1C = molecular target: T14, PIP5K1C (Homo sapiens, UniProt O60331); test: Kinase panel assay (lipid kinase); type: biochemical; details: 30 μM compound, ATP 10 μM, duplicates Data 1/Data 2
T14 construct: purchased Reaction Biology Corp
Method: as §1

[3] = 30 μM compound, duplicates Data 1/Data 2
[4] = 30 μM compound, duplicates Data 1/Data 2, read-out: % Enzyme Activity (relative to DMSO controls)
[5] = 30 μM, average ± SD, read-out: % Residual Activity at 30 μM
[6] = read-out: % Enzyme Activity (relative to DMSO controls)

T9 sequence (O75116 whole entry): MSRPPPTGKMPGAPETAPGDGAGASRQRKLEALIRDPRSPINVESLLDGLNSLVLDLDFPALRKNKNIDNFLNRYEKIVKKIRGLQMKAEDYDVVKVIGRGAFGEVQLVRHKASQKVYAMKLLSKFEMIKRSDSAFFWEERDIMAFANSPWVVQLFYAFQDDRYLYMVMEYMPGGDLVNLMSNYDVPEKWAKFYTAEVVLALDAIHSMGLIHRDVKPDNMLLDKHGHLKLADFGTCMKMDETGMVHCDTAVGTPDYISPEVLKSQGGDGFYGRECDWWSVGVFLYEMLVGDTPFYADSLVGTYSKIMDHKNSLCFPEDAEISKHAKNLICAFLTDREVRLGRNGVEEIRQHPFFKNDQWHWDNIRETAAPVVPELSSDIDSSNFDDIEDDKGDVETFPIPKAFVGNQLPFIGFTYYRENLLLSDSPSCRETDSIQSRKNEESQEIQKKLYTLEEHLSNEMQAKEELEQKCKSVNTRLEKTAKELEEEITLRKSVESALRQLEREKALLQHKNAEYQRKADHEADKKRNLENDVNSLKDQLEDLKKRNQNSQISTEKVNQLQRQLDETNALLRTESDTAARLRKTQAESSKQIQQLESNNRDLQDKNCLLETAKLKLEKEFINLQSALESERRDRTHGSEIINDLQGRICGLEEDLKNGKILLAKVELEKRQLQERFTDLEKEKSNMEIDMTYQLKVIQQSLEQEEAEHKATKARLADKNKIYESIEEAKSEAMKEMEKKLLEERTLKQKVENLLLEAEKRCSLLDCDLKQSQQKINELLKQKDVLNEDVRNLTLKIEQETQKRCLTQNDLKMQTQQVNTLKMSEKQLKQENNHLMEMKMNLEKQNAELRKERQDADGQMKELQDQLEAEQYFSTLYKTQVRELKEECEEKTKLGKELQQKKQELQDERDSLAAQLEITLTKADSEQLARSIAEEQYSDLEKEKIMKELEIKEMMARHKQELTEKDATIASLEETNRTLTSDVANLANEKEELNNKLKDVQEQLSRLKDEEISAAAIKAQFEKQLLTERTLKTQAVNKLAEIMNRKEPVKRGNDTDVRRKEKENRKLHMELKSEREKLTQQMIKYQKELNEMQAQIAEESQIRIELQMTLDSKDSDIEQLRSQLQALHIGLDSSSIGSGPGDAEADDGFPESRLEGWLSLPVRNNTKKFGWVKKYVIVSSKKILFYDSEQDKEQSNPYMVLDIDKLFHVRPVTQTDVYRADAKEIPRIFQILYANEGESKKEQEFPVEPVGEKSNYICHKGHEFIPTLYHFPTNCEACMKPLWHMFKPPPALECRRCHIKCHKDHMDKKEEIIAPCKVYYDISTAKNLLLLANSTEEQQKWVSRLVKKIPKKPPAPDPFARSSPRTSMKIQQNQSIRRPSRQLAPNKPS
T12 sequence (Q9BTU6 whole entry): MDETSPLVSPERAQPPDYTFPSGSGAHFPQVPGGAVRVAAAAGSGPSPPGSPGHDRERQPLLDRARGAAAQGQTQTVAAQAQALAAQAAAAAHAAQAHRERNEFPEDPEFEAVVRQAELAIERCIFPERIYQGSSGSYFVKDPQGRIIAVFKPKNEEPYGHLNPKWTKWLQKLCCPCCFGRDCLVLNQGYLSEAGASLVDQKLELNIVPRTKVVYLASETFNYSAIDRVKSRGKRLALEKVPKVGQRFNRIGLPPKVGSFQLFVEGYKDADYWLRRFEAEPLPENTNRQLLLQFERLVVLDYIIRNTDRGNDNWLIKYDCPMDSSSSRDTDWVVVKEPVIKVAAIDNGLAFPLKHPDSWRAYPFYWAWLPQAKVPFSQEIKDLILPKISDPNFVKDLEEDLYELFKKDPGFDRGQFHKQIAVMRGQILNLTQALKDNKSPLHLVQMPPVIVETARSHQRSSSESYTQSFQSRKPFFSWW
T11 sequence (Q8NEB9 whole entry): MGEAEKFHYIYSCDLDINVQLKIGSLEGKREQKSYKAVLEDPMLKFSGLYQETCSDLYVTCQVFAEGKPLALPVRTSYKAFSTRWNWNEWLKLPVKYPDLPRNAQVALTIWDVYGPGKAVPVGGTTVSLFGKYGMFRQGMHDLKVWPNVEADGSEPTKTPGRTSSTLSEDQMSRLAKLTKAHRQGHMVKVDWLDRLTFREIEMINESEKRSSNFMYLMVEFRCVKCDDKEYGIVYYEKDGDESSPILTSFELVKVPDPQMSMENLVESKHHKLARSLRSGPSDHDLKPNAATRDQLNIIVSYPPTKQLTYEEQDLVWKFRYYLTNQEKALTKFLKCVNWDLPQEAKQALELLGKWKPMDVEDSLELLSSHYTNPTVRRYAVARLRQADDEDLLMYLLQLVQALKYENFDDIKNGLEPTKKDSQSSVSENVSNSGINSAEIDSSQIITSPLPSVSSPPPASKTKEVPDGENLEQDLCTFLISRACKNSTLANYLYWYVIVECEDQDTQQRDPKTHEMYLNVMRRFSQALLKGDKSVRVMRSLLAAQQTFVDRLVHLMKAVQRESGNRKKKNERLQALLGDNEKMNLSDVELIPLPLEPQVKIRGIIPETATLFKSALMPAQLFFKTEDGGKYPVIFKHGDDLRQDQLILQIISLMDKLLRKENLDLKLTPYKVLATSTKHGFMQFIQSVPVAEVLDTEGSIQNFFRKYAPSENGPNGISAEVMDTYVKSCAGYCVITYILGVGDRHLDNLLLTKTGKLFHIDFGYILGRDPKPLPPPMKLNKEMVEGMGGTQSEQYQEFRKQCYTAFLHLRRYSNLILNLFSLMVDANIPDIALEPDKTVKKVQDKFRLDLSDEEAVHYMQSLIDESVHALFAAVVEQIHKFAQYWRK
T10 sequence (O00443 whole entry): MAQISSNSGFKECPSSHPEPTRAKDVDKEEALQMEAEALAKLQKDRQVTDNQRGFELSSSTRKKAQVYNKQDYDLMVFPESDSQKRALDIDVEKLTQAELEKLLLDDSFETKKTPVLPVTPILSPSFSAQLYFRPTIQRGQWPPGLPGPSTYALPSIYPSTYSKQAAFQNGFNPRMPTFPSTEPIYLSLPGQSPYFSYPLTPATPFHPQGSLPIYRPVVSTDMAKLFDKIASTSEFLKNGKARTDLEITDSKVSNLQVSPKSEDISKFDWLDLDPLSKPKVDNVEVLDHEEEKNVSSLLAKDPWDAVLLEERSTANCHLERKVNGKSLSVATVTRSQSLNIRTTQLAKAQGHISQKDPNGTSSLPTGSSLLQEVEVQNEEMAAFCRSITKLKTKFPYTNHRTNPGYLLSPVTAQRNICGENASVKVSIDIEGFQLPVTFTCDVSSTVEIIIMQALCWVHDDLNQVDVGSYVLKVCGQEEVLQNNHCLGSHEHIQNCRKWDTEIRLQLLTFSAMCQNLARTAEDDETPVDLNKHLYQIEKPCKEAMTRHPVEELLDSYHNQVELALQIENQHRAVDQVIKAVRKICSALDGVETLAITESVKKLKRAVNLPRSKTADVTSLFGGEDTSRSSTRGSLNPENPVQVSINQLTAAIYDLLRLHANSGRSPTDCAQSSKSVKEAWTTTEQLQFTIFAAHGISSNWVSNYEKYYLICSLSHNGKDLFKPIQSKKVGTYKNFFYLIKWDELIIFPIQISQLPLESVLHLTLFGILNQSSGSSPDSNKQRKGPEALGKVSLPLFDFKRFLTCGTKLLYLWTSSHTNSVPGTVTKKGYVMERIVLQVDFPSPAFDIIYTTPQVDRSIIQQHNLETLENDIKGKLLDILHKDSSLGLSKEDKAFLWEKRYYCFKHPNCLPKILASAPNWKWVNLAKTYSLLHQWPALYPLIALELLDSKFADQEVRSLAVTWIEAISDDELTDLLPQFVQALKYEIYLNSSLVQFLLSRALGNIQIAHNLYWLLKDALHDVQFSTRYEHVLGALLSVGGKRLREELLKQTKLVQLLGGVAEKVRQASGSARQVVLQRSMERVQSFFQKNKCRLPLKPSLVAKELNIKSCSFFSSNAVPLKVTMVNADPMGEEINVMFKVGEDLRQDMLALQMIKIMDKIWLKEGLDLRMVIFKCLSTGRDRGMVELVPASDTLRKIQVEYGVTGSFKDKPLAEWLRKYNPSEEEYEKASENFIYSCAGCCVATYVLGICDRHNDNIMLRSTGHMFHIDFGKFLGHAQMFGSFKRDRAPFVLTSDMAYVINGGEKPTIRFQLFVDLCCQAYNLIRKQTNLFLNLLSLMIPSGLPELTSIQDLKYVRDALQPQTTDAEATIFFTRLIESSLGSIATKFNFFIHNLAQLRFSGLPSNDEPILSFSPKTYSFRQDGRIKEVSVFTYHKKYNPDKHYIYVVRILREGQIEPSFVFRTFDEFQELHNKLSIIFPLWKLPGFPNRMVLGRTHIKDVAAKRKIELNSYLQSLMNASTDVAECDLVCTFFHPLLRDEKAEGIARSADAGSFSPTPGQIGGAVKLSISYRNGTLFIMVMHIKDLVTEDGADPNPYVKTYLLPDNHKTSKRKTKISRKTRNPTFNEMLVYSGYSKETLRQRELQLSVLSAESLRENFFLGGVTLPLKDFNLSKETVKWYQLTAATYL
T14 sequence (O60331 whole entry): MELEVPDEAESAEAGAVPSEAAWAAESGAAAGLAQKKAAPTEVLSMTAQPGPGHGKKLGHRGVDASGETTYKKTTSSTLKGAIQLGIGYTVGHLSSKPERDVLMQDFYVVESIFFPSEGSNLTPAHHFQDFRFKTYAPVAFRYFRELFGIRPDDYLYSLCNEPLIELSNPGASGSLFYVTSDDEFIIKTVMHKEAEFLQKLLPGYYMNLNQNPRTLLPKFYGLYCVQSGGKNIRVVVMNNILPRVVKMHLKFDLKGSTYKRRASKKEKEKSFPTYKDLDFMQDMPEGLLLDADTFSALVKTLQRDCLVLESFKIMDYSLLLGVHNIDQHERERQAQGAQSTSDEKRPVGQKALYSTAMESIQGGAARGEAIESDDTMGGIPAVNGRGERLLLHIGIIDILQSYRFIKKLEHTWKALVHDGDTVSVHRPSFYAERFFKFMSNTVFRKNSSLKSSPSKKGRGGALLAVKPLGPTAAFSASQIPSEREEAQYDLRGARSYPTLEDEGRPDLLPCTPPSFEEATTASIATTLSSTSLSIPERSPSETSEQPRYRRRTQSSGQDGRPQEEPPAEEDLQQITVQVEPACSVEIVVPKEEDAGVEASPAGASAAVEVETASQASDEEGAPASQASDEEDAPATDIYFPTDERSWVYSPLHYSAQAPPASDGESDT

O=C1C=CC2(C=C1)OCC(Cc1cc(C(F)(F)F)cc(C(F)(F)F)c1)C(=O)N2c1ccccc1 (racemic) [1c]
% Residual Activity at 30 μM (DAPK1): 45.4 ± 0.1% | % Residual Activity at 30 μM (Haspin): 66.4 ± 0.5% | % Residual Activity at 30 μM (PKN2/PRK2): 63.5 ± 1.8% | % Residual Activity at 30 μM (ROCK1): 97 ± 2.9% | % Residual Activity at 30 μM (TRKB): 94.1 ± 1.7%

O=C1C=CC2(C=C1)OCC(Cc1cn(-c3cccc(Cl)c3)nn1)C(=O)N2c1ccccc1 (centres unmarked) [2d, 3-((1-(3-Chlorophenyl)-1H-1,2,3-triazol-4-yl)methyl)-5-phenyl-1-oxa-5-azaspiro[5.5]undeca-7,10-diene-4,9-dione]
% Enzyme Activity (relative to DMSO controls) (AMPK(A1/B1/G3) [1]): 100.85% | remaining activity at 30 µM (AMPK(A1/B1/G3) [2]): 101% | % Enzyme Activity (relative to DMSO controls) (RIPK5; [3]): 83.85% | remaining activity at 30 µM (RIPK5; [4]): 86.1% | remaining activity at 30 µM (RIPK5; [5]): 85 ± 1.6% | % Enzyme Activity (relative to DMSO controls) (ROCK2; [3]): 98.38% | remaining activity at 30 µM (ROCK2; [4]): 100% | remaining activity at 30 µM (ROCK2; [5]): 99.4 ± 1.5% | % Enzyme Activity (relative to DMSO controls) (PI3KC2A): 123.51% | remaining activity at 30 µM (PI3KC2A; [6]): 122% | % Enzyme Activity (relative to DMSO controls) (PI3KC3): 98.59% | remaining activity at 30 µM (PI3KC3; [6]): 99.8% | % Enzyme Activity (relative to DMSO controls) (PI4K2A): 74.47% | remaining activity at 30 µM (PI4K2A; [6]): 75.9% | % Enzyme Activity (relative to DMSO controls) (PIP5K1A): 84.84% | remaining activity at 30 µM (PIP5K1A; [6]): 86% | % Enzyme Activity (relative to DMSO controls) (PIP5K1C): 87.90% | remaining activity at 30 µM (PIP5K1C; [6]): 88.2%
